The values that follow come from ChEMBL document CHEMBL4118184, “Design, synthesis and biological evaluation of novel pyrimidinedione derivatives as DPP-4 inhibitors” (Bioorg Med Chem Lett, 2018).

A short description of data set [1]: Lipophilicity, log P of the compound. The class given is physicochemical. The conditions noted are these: octanol/water.
Data set [2] relates to Mus musculus. Briefly: Toxicity in BKS db/db mouse assessed as effect on body weight at 100 mg/kg/day up to 4 weeks. It counts as organism-based. The conditions noted are these: in vivo, 672 h.
Data set [3] concerns Mus musculus. Kind of data set: Toxicity in BKS db/db mouse assessed as effect on water intake at 100 mg/kg/day up to 4 weeks. The class given is organism-based. The conditions noted are these: in vivo, 672 h.
The test system of data set [4] is Mus musculus. Kind of data set: Antihyperglycemic activity in BKS db/db mouse assessed as reduction in blood glucose level at 100 mg/kg/day for 4 weeks by glucometric analysis. It counts as functional, organism-based.
The test system of data set [5] is Mus musculus. Briefly: Effect on abdominal fat content in BKS db/db mouse assessed as reduction in abdominal fat ratio at 100 mg/kg/day for 4 weeks. It counts as functional, organism-based.

Structures are written as SMILES. Active and inactive are the calls of the source. The rule behind the calls is not given here.

The logP is a log measure of how a compound divides between an organic and an aqueous phase. In data set [1], `COc1ccc(Cn2c(=O)cc(N3CCC[C@@H](N)C3)n(Cc3cc(F)ccc3C#N)c2=O)cc1OC` [listing 1 of 2 here] registered a logP of 2.66.
In the case of `Cc1cc(C)cc(Cn2c(=O)cc(N3CCC[C@@H](N)C3)n(Cc3cc(F)ccc3C#N)c2=O)c1`, in data set [1], the logP amounted to 3.89.
Turning to `COc1ccc(Cn2c(=O)cc(N3CCC[C@@H](N)C3)n(Cc3cc(F)ccc3C#N)c2=O)cc1OC.O=C(O)CCC(=O)O`, the figures for the Activity entry in the data set with Mus musculus [2] and in the data set on Mus musculus [3] were “Non-Toxic” and “Toxic”, respectively.
In data set [1], `CC#CCn1c(N2CCC[C@@H](N)C2)cc(=O)n(CCCCCC)c1=O` returned a logP of 2.15.
On the same count and under the same terms, then `CC#CCn1c(N2CCC[C@@H](N)C2)cc(=O)n(Cc2cc(F)cc(F)c2)c1=O`, with 2.12; and `CC#CCn1c(N2CCC[C@@H](N)C2)cc(=O)n(Cc2cc(Br)c(OC)c(OC)c2)c1=O`, with 2.38.
On the same count and under the same terms, with `COc1cc(Cn2c(=O)cc(N3CCC[C@@H](N)C3)n(Cc3cc(F)ccc3C#N)c2=O)c(Br)c(Br)c1OC` the figure was 4.32.
In the case of `CN(C)C(=N)N=C(N)N` [METFORMIN], the Activity result in the data set with Mus musculus [2] is listed as “Non-Toxic”; in the data set with Mus musculus [3], “Toxic”.
As to `CC#CCn1c(N2CCC[C@@H](N)C2)cc(=O)n(Cc2c(Br)c(Br)c(OC)c(OC)c2Br)c1=O`, the lipophilicity (logP) in data set [1] was 4.04.
Take `COc1ccc(Cn2c(=O)cc(N3CCC[C@@H](N)C3)n(Cc3cc(F)ccc3C#N)c2=O)cc1OC` [listing 2 of 2 here]: the outcome in the data set on Mus musculus [4] was Active. Moreover, the result in the data set with Mus musculus [5] was inactive.
On the same counts, the results for `CN(C)C(=N)NC(=N)N` are “Active” and “inactive”.
On to `CC#CCn1c(N2CCC[C@@H](N)C2)cc(=O)n(Cc2ccc(OC)c(OC)c2)c1=O`, for which the logP in data set [1] amounted to 1.55.
Same read-out and setting: with `CCCCCCn1c(=O)cc(N2CCC[C@@H](N)C2)n(Cc2cc(F)ccc2C#N)c1=O` the figure was 3.26; with `COc1c(Br)c(Br)c(Cn2c(=O)cc(N3CCC[C@@H](N)C3)n(Cc3cc(F)ccc3C#N)c2=O)c(Br)c1OC`, 5.15.
On the same count and under the same terms, then `CC#CCn1c(N2CCC[C@@H](N)C2)cc(=O)n(CCCCCCCCCC)c1=O`, with 3.82.
On the same count and under the same terms, with `CCCCCCCCCCn1c(=O)cc(N2CCC[C@@H](N)C2)n(Cc2cc(F)ccc2C#N)c1=O` the figure was 4.93; with `CC#CCn1c(N2CCC[C@@H](N)C2)cc(=O)n(CCC)c1=O`, 0.9.
`CC#CCn1c(N2CCC[C@@H](N)C2)cc(=O)n(Cc2cc(OC)c(OC)c(Br)c2Br)c1=O` had a logP in data set [1] of 3.21.
Same read-out and setting: with `N#Cc1ccc(F)cc1Cn1c(N2CCC[C@@H](N)C2)cc(=O)n(Cc2cc(F)cc(F)c2)c1=O` the figure was 3.23.
The same measure, in the same setting: with `CC#CCn1c(N2CCC[C@@H](N)C2)cc(=O)n(CC)c1=O` the figure was 0.41.
The same measure, in the same setting: then `COc1cc(Cn2c(=O)cc(N3CCC[C@@H](N)C3)n(Cc3cc(F)ccc3C#N)c2=O)cc(Br)c1OC`, with 3.49; and `CC#CCn1c(N2CCC[C@@H](N)C2)cc(=O)n(Cc2cc(C)cc(C)c2)c1=O`, with 2.78.
